# Structures can show the parent of a compound that is named as a salt.
# Tests used:
# Conditions in all cases: 72 h
# Calu-3 [1] = assay: drug sensitivity score (DSS) for viability; higher = more toxic; extreme values may be limits of the assay
# U2OS [2] = assay: as above
# HepG2 [3] = assay: as above
# Caco-2 [4] = assay: as above
# Calu-3 [5] = assay: cell viability relative to DMSO; higher = less toxic
# U2OS [6] = assay: as above
# HepG2 [7] = assay: as above
# Caco-2 [8] = assay: as above
# Calu-3 [9] = assay: relative viability EC50 (midpoint between 100% and the lowest measured viability); higher = less toxic
# U2OS [10] = assay: as above
# HepG2 [11] = assay: as above
# Caco-2 [12] = assay: as above
# Vero E6 [13] = assay: drug sensitivity score (DSS) for viability; higher = more toxic; extreme values may be limits of the assay
# Vero E6 [14] = assay: cell viability relative to DMSO; higher = less toxic
SMILES,drug sensitivity score (Calu-3 [1]),drug sensitivity score (U2OS [2]),drug sensitivity score (HepG2 [3]),drug sensitivity score (Caco-2 [4]),cell viability (Calu-3 [5]; 1 nM) [%],cell viability (Calu-3 [5]; 10 nM) [%],cell viability (Calu-3 [5]; 100 nM) [%],cell viability (Calu-3 [5]; 1000 nM) [%],cell viability (Calu-3 [5]; 10000 nM) [%],cell viability (U2OS [6]; 1 nM) [%],cell viability (U2OS [6]; 10 nM) [%],cell viability (U2OS [6]; 100 nM) [%],cell viability (U2OS [6]; 1000 nM) [%],cell viability (U2OS [6]; 10000 nM) [%],cell viability (HepG2 [7]; 1 nM) [%],cell viability (HepG2 [7]; 10 nM) [%],cell viability (HepG2 [7]; 100 nM) [%],cell viability (HepG2 [7]; 1000 nM) [%],cell viability (HepG2 [7]; 10000 nM) [%],cell viability (Caco-2 [8]; 1 nM) [%],cell viability (Caco-2 [8]; 10 nM) [%],cell viability (Caco-2 [8]; 100 nM) [%],cell viability (Caco-2 [8]; 1000 nM) [%],cell viability (Caco-2 [8]; 10000 nM) [%],relative viability EC50 (Calu-3 [9]) [µM],relative viability EC50 (U2OS [10]) [µM],relative viability EC50 (HepG2 [11]) [µM],relative viability EC50 (Caco-2 [12]) [µM],drug sensitivity score (Vero E6 [13]),cell viability (Vero E6 [14]; 1 nM) [%],cell viability (Vero E6 [14]; 10 nM) [%],cell viability (Vero E6 [14]; 100 nM) [%],cell viability (Vero E6 [14]; 1000 nM) [%],cell viability (Vero E6 [14]; 10000 nM) [%]
O=C(O)c1cc(=O)[nH]c(=O)[nH]1 [orotic-acid],0,0,0,0,103,98.7,97.6,99.6,100,102,101,104,97.7,99.4,106,117,98.6,106,100,105,94.8,92.6,80,102,> 10,> 10,> 10,> 10,,,,,,
COC(=O)C1=CO[C@@H](O[C@@H]2O[C@H](CO)[C@@H](O)[C@H](O)[C@H]2O)[C@@H]2C(CO)=CC[C@H]12 [geniposide],0,0,0,0,84.8,98.2,91.2,96.4,98.4,93.9,99.4,94.9,99.5,99,104,95.5,106,114,92.4,99.6,94.5,93.5,95.9,93.9,> 10,> 10,> 10,> 10,,,,,,
N=C(N)c1ccc(OCCCCCOc2ccc(C(=N)N)cc2)cc1 [pentamidine],0,1.8,13.9,1.9,94.7,104,104,96,94.5,105,105,101,96.3,71.5,104,97.5,105,22.5,18.3,90.1,93.4,92.2,93.9,71.7,> 10,,0.39,,3.4,107,65.4,92.6,79.8,82.9
CN[C@@H]1[C@H](O[C@H]2[C@H](O[C@H]3[C@H](O)[C@@H](O)[C@H](NC(=N)N)[C@@H](O)[C@@H]3NC(=N)N)O[C@@H](C)[C@]2(O)CO)O[C@@H](CO)[C@H](O)[C@H]1O [dihydrostreptomycin],0,0,0,0,97.8,97.1,106,96.9,94.8,102,105,97.3,107,97.3,109,100,101,105,98.5,99.2,94.3,97.6,93.8,104,> 10,> 10,> 10,> 10,,,,,,
COc1ccc(C2(CNC(=O)c3ccc(NC(=O)c4ccco4)cc3)CCOCC2)cc1 [JW-55],,0,0,0,,,,,,103,95.9,97.8,95.2,90.8,100,117,94.9,102,89.3,101,91.6,97.8,92.1,93.6,,> 10,> 10,> 10,1.6,103,108,97.3,102,62.6
CN(C)CC/C=C1/c2ccccc2COc2ccc(CC(=O)O)cc21 [Olopatadine hydrochloride (Opatanol)],0,0,0,,,,,,,,,,,,,,,,,,,,,,,,,,0,,,,,
O=C(O)c1cn(-c2ccc(F)cc2)c2cc(N3CCNCC3)c(F)cc2c1=O [sarafloxacin],0,0,0,0,93.1,95.7,102,99.7,101,101,108,99.2,100,97.4,113,98.8,101,94.4,99.6,98.3,87.3,95.6,98,97.4,> 10,> 10,> 10,> 10,,,,,,
c1ccc(C(NCc2cccnc2)(c2ccccc2)c2ccccc2)cc1 [UCL-2077],0,0,0,0,96.7,86.1,89.6,94.2,94.8,96.9,98.5,101,106,103,97.4,104,97.3,92.6,94.6,101,103,96.7,103,91.4,> 10,> 10,> 10,> 10,,,,,,
CC1CS(=O)(=O)CCN1/N=C/c1ccc([N+](=O)[O-])o1 (configuration not stated) [nifurtimox],0,0,0,,,,,,,,,,,,,,,,,,,,,,,,,,0,,,,,
C[C@H]1O[C@H](O[C@H]2[C@H](O)[C@@H](O)[C@@H](O[C@H]3[C@H](O)[C@@H](O)C(O)O[C@@H]3CO)O[C@@H]2CO)[C@H](O)[C@@H](O)[C@@H]1N[C@H]1C=C(CO)[C@@H](O)[C@H](O)[C@H]1O (some centres not stated) [acarbose],0,,0,,,,,,,,,,,,,,,,,,,,,,,,,,0,,,,,
CCN(CCCOc1ccc2c(Nc3cc(CC(=O)Nc4cccc(F)c4)[nH]n3)ncnc2c1)CCOP(=O)(O)O [barasertib],0,0,6,0.4,112,94.2,102,92.2,91.3,101,101,98,100,89.7,93.4,94.7,70.7,82.9,75,99.4,99.7,79.1,102,82.9,> 10,> 10,,> 10,1.9,94.3,96.9,101,93.7,74.2
CC(C)Cc1ccc(C(C)C(=O)NO)cc1 (configuration not stated) [ibuproxam],0,0,0,,,,,,,,,,,,,,,,,,,,,,,,,,0,,,,,
Cc1nc(=O)c2cc(CN(C)c3ccc(C(=O)N[C@@H](CCC(=O)O)C(=O)O)s3)ccc2[nH]1 [raltitrexed],2,0,10.5,13.4,103,104,87.4,92.6,85.8,99.1,105,100,97.4,95.8,111,104,70.7,60.7,65.1,91.2,99,64.2,59.9,50.1,> 10,> 10,,,10.7,98.8,101,66.1,62.9,66.6
CC(=O)O[C@H]1C(=O)[C@@]2(C)[C@H]([C@H](OC(=O)c3ccccc3)[C@]3(O)C[C@H](OC(=O)[C@H](O)[C@@H](NC(=O)c4ccccc4)c4ccccc4)C(C)=C1C3(C)C)[C@]1(OC(C)=O)CO[C@@H]1C[C@@H]2O [paclitaxel],16.4,25.9,24.9,14.7,97.9,64.3,62.6,68.5,65.7,101,67.9,32.9,30.3,26.3,108,64.9,42.8,36.5,34.4,109,84.8,61.7,57,48.7,,0.0128,0.0095,0.0334,8.6,103,98.3,91.6,59.8,74.2
